Source: patent US10253029B2, “Dual-warhead covalent inhibitors of FGFR-4” (Newave Pharmaceutical Inc., priority 2015, dated 2019)

Assays:
[1] = tested on: patient-derived liver cancer cell line LIXC012; test: Antiproliferative activity, ATPlite Luminescence Assay; format: cell-based; details: FGF19-overexpressing LIXC012 cells, about 72 hours, 5% FBS; read-out: LIXC012 IC50 (cellular antiproliferative)
Description: The antiproliferative activity of compounds are assessed in the patient-derived liver cancer cell line LIXC012 (Shanghai ChemPartner Co., LTD) by PerkinElmer ATPlite™ Luminescence Assay System. LIXC012 cell line has a FGFR-4 aberrant signaling pathway (FGF19-overexpressing). Briefly, the various test cancer cell lines are plated at a density of about 1×10^4 cells per well in Costar 96-well plates, and are incubated with different concentrations of compounds for about 72 hours in medium supplemented with 5% FBS. One lyophilized substrate solution vial is then reconstituted by adding 5 mL of substrate buffer solution, and is agitated gently until the solution is homogeneous. About 50 μL of mammalian cell lysis solution is added to 100 μL of cell suspension per well of a microplate, and the plate is shaken for about five minutes in an orbital shaker at ˜700 rpm. This procedure is used to lyse the cells and to stabilize the ATP. Next, 50 μL substrate solution is added to the wells and microplate is shaken for five minutes in an orbital shaker at ˜700 rpm. Finally, the luminescence is measured by a PerkinElmer TopCount® Microplate Scintillation Counter. Such assays, carried out with a range of doses of test compounds, allow the determination of the cellular anti-antiproliferative IC50 of the compounds of the present invention. The following table lists the IC50 values of certain compounds of the invention in the FGF19-overexpressing Patient-Derived liver cancer cell line LIXC012.

wild type FGFR-1 = biological target: T1, wild type FGFR-1 (Homo sapiens, UniProt P11362); test: FGFR-1 wild type assay at Km (Caliper mobility shift); format: biochemical; details: wild type FGFR-1, 400 uM ATP, 25 C, 90 minutes
T1 construct: purchased Carna Biosciences, Inc
T1 sequence (P11362 22-822): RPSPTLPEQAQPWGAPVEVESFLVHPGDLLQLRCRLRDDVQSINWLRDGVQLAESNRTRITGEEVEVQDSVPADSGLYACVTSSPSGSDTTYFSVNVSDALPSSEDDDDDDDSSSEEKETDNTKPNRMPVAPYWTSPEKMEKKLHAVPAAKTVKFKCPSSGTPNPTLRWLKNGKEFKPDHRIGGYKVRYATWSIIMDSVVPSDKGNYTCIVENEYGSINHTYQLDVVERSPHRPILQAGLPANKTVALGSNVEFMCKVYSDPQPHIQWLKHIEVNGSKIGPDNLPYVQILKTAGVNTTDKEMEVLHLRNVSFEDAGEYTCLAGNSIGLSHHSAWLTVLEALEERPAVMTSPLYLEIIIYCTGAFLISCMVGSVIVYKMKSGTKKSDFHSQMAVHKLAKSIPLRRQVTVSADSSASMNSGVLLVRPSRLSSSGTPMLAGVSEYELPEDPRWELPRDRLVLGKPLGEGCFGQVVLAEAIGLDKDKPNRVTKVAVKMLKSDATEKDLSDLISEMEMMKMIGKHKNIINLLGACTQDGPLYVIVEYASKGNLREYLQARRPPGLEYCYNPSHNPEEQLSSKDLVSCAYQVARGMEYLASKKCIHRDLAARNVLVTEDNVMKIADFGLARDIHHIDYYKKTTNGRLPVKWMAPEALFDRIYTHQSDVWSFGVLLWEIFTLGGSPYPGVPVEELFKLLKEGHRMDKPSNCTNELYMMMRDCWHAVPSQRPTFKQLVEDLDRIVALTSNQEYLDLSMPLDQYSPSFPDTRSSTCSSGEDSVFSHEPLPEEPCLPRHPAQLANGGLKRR
Description: (§1) In order to assess the activity of chemical compounds against the relevant kinase of interest, the Caliper LifeSciences electrophoretic mobility shift technology platform is utilized. Fluorescently labeled substrate peptide is incubated in the presence dosed levels of compounds, a set concentration of kinase and of ATP, so that a reflective proportion of the peptide is phosphorylated. At the end of the reaction, the mix of phosphorylated (product) and non-phosphorylated (substrate) peptides are passed through the microfluidic system of the Caliper LabChip® EZ Reader II, under an applied potential difference. The presence of the phosphate group on the product peptide provides a difference in mass and charge between the product peptide and the substrate peptide, resulting in a separation of the substrate and product pools in the sample. As the pools pass the LEDS within the instrument, these pools are detected and resolved as separate peaks. The ratio between these peaks therefore reflects the activity of the chemical matter at that concentration in that well, under those conditions. […]

wild type FGFR-2 = biological target: T2, wild type FGFR-2 (Homo sapiens, UniProt P21802); test: FGFR-2 wild type assay at Km (Caliper mobility shift); format: biochemical; details: wild type FGFR-2, 400 uM ATP, 25 C, 90 minutes
T2 construct: purchased Carna Biosciences, Inc
T2 sequence (P21802 22-821): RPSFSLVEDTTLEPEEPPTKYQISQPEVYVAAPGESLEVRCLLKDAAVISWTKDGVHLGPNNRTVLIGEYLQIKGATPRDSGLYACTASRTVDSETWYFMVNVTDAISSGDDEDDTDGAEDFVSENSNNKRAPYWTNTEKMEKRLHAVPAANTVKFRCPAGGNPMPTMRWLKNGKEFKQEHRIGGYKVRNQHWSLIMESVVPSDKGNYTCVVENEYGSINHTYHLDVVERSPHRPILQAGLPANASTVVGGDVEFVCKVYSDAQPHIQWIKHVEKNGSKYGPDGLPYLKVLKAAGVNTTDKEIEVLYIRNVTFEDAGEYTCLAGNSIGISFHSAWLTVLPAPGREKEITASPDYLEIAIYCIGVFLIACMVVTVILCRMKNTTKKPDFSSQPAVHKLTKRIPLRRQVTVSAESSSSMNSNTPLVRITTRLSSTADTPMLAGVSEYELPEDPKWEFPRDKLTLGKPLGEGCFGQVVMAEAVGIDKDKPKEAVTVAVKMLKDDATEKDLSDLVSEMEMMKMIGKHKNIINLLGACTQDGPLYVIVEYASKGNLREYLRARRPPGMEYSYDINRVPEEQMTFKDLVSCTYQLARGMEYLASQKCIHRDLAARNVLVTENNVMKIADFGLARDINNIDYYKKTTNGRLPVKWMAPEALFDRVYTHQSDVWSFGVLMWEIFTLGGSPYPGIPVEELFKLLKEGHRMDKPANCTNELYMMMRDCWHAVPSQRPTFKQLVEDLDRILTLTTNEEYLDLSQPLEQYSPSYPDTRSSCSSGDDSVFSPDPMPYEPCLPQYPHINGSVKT
Description: as §1

wild type FGFR-3 = biological target: T3, wild type FGFR-3 (Homo sapiens, UniProt P22607); test: FGFR-3 wild type assay at Km (Caliper mobility shift); format: biochemical; details: wild type FGFR-3, 400 uM ATP, 25 C, 90 minutes
T3 construct: purchased Carna Biosciences, Inc
T3 sequence (P22607 23-806): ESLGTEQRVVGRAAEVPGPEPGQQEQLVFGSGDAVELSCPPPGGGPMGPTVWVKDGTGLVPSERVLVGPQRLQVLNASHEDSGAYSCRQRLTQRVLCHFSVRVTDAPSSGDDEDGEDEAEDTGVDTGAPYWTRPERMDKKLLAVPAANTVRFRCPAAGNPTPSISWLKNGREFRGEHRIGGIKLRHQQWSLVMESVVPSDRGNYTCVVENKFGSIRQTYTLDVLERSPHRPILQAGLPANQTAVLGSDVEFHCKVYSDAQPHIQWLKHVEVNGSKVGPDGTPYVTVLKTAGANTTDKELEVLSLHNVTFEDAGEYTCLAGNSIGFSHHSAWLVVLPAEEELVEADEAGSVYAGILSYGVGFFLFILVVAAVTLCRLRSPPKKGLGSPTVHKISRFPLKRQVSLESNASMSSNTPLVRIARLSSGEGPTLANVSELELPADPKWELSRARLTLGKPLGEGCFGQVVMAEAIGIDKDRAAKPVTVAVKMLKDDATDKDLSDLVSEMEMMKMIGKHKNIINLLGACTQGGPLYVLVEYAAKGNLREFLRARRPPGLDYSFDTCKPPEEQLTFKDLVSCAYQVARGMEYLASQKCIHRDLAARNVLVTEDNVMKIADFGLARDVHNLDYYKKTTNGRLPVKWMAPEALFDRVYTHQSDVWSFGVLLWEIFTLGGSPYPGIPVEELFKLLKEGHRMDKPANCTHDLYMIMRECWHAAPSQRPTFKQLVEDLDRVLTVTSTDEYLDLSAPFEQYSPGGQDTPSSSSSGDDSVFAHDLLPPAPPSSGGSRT
Description: as §1

wild type FGFR-4 = biological target: T4, wild type FGFR-4 (Homo sapiens, UniProt P22455); test: FGFR-4 wild type assay at Km (Caliper mobility shift); format: biochemical; details: wild type FGFR-4, 400 uM ATP, 25 C, 90 minutes
T4 construct: purchased Carna Biosciences, Inc
T4 sequence (P22455 22-802): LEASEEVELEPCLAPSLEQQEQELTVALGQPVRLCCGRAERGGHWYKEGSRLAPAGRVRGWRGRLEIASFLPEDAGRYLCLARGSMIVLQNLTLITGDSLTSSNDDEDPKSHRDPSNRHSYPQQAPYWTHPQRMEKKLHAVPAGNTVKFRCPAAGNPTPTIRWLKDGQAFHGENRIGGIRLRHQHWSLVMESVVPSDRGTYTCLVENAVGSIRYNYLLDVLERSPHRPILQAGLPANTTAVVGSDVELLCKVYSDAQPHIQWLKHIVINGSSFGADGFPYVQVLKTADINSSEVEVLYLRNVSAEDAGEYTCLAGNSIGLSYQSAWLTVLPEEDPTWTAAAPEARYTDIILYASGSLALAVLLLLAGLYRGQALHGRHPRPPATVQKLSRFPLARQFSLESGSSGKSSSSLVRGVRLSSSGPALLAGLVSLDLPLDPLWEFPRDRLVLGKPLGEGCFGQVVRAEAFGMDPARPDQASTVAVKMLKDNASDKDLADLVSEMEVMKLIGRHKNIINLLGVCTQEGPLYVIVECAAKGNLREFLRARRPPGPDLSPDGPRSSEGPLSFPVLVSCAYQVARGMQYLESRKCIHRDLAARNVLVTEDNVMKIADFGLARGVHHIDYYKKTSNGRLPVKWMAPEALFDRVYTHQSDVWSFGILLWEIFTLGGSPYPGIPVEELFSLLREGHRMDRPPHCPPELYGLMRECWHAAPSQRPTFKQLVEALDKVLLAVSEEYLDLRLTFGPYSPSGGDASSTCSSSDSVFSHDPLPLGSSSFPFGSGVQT
Description: In order to assess the activity of chemical compounds against the relevant kinase of interest, the Caliper LifeSciences electrophoretic mobility shift technology platform is utilized. Fluorescently labeled substrate peptide is incubated in the presence dosed levels of compounds, a set concentration of kinase and of ATP, so that a reflective proportion of the peptide is phosphorylated. At the end of the reaction, the mix of phosphorylated (product) and non-phosphorylated (substrate) peptides are passed through the microfluidic system of the Caliper LabChip® EZ Reader II, under an applied potential difference. The presence of the phosphate group on the product peptide provides a difference in mass and charge between the product peptide and the substrate peptide, resulting in a separation of the substrate and product pools in the sample. As the pools pass the LEDS within the instrument, these pools are detected and resolved as separate peaks. The ratio between these peaks therefore reflects the activity of the chemical matter at that concentration in that well, under those conditions.
FGFR-4 wild type assay at Km: In each well of a 384-well plate, 0.5 ng/ul of wild type FGFR-4 (Carna Biosciences, Inc.) was incubated in a total of 12.5 ul of buffer (100 mM HEPES pH 7.5, 0.015% Brij 35, 10 mM MgCl2, ImM DTT) with 1 uM CSKtide (5-FAM-KKKKEEIYFFFG-NH2) and 400 uM ATP at 25 C for 90 minutes in the presence or absence of a dosed concentration series of compound (1% DMSO final concentration). The reaction was stopped by the addition of 70 ul of Stop buffer (100 mM HEPES pH 7.5, 0.015% Brij 35, 35 mM EDTA and 0.2% of Coating Reagent 3 (Caliper Lifesciences)). The plate was then read on a Caliper LabChip® EZ Reader II (protocol settings: −1.9 psi, upstream voltage −700, downstream voltage −3000, post sample sip 35 s).
Such assays, carried out with a range of doses of test compounds, allow the determination of an approximate IC50 value. […] The following table lists the IC50 values of certain compounds of the invention.

SMILES	IC50 [1] [nM]	IC50 (wild type FGFR-1) [nM]	IC50 (wild type FGFR-2) [nM]	IC50 (wild type FGFR-3) [nM]	IC50 (wild type FGFR-4) [nM]
C=CC(=O)Nc1cccc(C)c1Nc1ncc2cc(-c3c(Cl)c(OC)cc(OC)c3Cl)ccc2n1 [BLU9931, reference compound]	280	–	–	–	–
C=CC(=O)Nc1ccc(Cn2c(=O)c(-c3c(Cl)c(OC)cc(OC)c3Cl)cc3cnc(Nc4c(C)cccc4NC(=O)C=C)nc32)cc1 [CY-15-2, N-(4-((2-((2-acrylamido-6-methylphenyl)amino)-6-(2,6-dichloro-3,5-dimethoxyphenyl)-7-oxopyrido[2,3-d]pyrimidin-8(7H)-yl)methyl)phenyl)acrylamide]	490	> 1000	> 1000	> 1000	< 50
C=CC(=O)Nc1ccc(CCn2c(=O)c(-c3c(Cl)c(OC)cc(OC)c3Cl)cc3cnc(Nc4c(C)cccc4NC(=O)C=C)nc32)cc1 [CY-15-3, N-(4-(2-(2-(2-acrylamido-6-methylphenylamino)-6-(2,6-dichloro-3,5-dimethoxyphenyl)-7-oxopyrido[2,3-d]pyrimidin-8(7H)-yl)ethyl)phenyl)acrylamide]	660	> 1000	> 1000	> 1000	< 50
C=CC(=O)Nc1cccc(C)c1Nc1ncc2cc(-c3c(Cl)c(OC)cc(OC)c3Cl)c(=O)n(CC3CN(C(=O)/C=C/CN(C)C)C3)c2n1 [CY-15-4]	–	–	–	–	< 50
C=CC(=O)Nc1cccc(C)c1Nc1ncc2cc(-c3c(Cl)c(OC)cc(OC)c3Cl)c(=O)n(CC3CCN(C(=O)/C=C/CN(C)C)C3)c2n1 (stereo not shown) [CY-15-5]	–	–	–	–	< 50
C=CC(=O)Nc1cccc(C)c1Nc1ncc2cc(-c3c(Cl)c(OC)cc(OC)c3Cl)c(=O)n(CC3CCN(C(=O)/C=C/CN(C)C)CC3)c2n1 [CY-15-6]	–	–	–	–	< 50
C=CC(=O)Nc1cccc(C)c1Nc1ncc2cc(-c3c(Cl)c(OC)cc(OC)c3Cl)c(=O)n(CCN3CCN(C(=O)C=C)CC3)c2n1 [CY-15-7]	–	–	–	–	< 50
C=CC(=O)Nc1cccc(C)c1Nc1ncc2cc(-c3c(Cl)c(OC)cc(OC)c3Cl)c(=O)n(CCCN3CCN(C(=O)C=C)CC3)c2n1 [CY-15-8]	–	–	–	–	< 50
